The test system of data set [1] is Hepatitis B virus. Put plainly: Antiviral activity against Hepatitis B virus infected in HepG2(2.2.15) cells assessed as reduction in HBsAg level at 100 uM after 9 days by ELISA relative to control. Format: functional. Conditions: HepG2 2.2.15, 216 h.
Data set [2] is described as follows: Cytotoxicity against african green monkey Vero cells assessed as cell viability after 2 days by MTS/PMS assay. The format is cell-based. Conditions: chlorocebus sabaeus.
Data set [3] in a line: Cytotoxicity against human HepG2(2.2.15) cells assessed as cell viability after 9 days by MTS/PMS assay. The format is cell-based.
Data set [4] is described as follows: Antiviral activity against Bovine viral diarrhea virus 1-NADL ATCC VR534 infected in MDBK cells assessed as reduction of viral cytopathic effect at 100 uM after 2 days by MTS assay relative to control. Format: functional. Conditions: Bovine viral diarrhea virus isolates and strains, 48 h. A general note: Damage to the host cells serves as the signal in cytopathic effect assays.

The nature of data set [5]: Cytotoxicity against bovine MDBK cells assessed as cell viability after 3 days by MTS/PMS assay. The format is cell-based, Bos taurus. The settings on record: cattle.
A short description of data set [6]: Antiviral activity against Bovine viral diarrhea virus 1-NADL ATCC VR534 infected in MDBK cells assessed as reduction of viral cytopathic effect after 2 days bt MTS assay. The format is functional, cell-based. The settings on record: Bovine viral diarrhea virus isolates and strains, 48 h.
The subject of data set [7] is Hepatitis B virus. Put plainly: Antiviral activity against Hepatitis B virus infected in HepG2(2.2.15) cells assessed as reduction in HBsAg level at 20 uM after 9 days by ELISA. The format is functional. Conditions: HepG2 2.2.15, 216 h. In general terms: An ELISA detects its analyte on a solid surface through an enzyme-linked reagent.
Data set [8] relates to Human alphaherpesvirus 1. Put plainly: Antiviral activity against Herpes simplex virus (type 1 / strain F) infected in Vero cells assessed as reduction of number of viral plaques at 100 uM after 2 days relative to control. The format is functional. Conditions: Human alphaherpesvirus 1, strain F, 48 h.
A short description of data set [9]: Cytotoxicity against human HepG2(2.2.15) cells assessed as cell viability after 72 hrs by MTS/PMS assay. Format: cell-based.
Data set [10] can be described thus: Cytotoxicity against bovine MDBK cells assessed as cell viability after 72 hrs by MTS/PMS assay. The format is cell-based, Bos taurus. The settings on record: cattle.
The nature of data set [11]: Cytotoxicity against african green monkey Vero cells assessed as cell viability after 72 hrs by MTS/PMS assay. The settings on record: chlorocebus sabaeus. Format: cell-based.
Data set [12] relates to Human alphaherpesvirus 1. Kind of data set: Antiviral activity against Herpes simplex virus (type 1 / strain F) infected in Vero cells assessed as reduction of number of viral plaques at 31.25 uM after 2 days relative to control. The format is functional. Conditions: Human alphaherpesvirus 1, strain F, 48 h.
The test system of data set [13] is Human alphaherpesvirus 1. Kind of data set: Antiviral activity against Herpes simplex virus (type 1 / strain F) infected in Vero cells assessed as reduction of number of viral plaques after 2 days. Format: functional, organism-based. Conditions: Human alphaherpesvirus 1, strain F, 48 h.

The text below walks through data of ChEMBL document CHEMBL2146401, “Synthesis and biological evaluation of novel homochiral carbocyclic nucleosides from 1-amino-2-indanols” (Bioorg Med Chem, 2012).

As a reminder, the inhibition is how much of the control response was suppressed. Usually CC50 stands for the concentration that lowers cell viability or growth by half. With `Nc1ncnc2c1nnn2[C@@H]1c2ccccc2C[C@@H]1O`, the inhibition at 100 µM with Hepatitis B virus [1] came out at 17.6%; in data set [4] it was 19.4%. In addition, in data set [2], the CC50 at 48 h was determined as 202 µM. Also, the CC50 at 216 h in [3] is more than 500 µM. Also, in [5], the CC50 at 72 h was more than 500 µM.

Usually EC50 stands for the concentration giving half of the maximal effect. Regarding `NC(=O)c1ncn([C@@H]2O[C@H](CO)[C@@H](O)[C@H]2O)n1` [RIBAVIRIN], the EC50 in data set [6] came out at 4.6 µM.

Take `Nc1ccn([C@@H]2CS[C@H](CO)O2)c(=O)n1` [LAMIVUDINE]: the inhibition at 20 µM in the data set with Hepatitis B virus [7] was 45%.

Turning to `Nc1ncnc2c1nnn2[C@H]1c2ccccc2C[C@@H]1O`, the inhibition at 100 µM with Hepatitis B virus [1] was 37.2%; in the data set with Human alphaherpesvirus 1 [8] it was 14.5%. Also, the CC50 at 48 h in [2] was 311 µM. The CC50 at 216 h in data set [3] was more than 500 µM. Further, in data set [5], the CC50 at 72 h is more than 500 µM.

`Oc1ncnc2c1nnn2[C@@H]1c2ccccc2C[C@H]1O`: in the data set with Hepatitis B virus [1], the inhibition at 100 µM amounted to 16.6%. In addition, the CC50 at 48 h in [2] is more than 500 µM. Moreover, the CC50 at 216 h in [3] is more than 500 µM. Moreover, in data set [5], the CC50 at 72 h was more than 500 µM.

On to `Oc1ncnc2c1nnn2[C@@H]1c2ccccc2C[C@@H]1O`, for which the inhibition at 100 µM was determined as 35.3% in the data set on Hepatitis B virus [1] and 12.8% in the data set with Human alphaherpesvirus 1 [8]. In addition, in data set [2], the CC50 at 48 h was more than 500 µM. Moreover, in data set [3], the CC50 at 216 h was more than 500 µM. Also, the CC50 at 72 h in [5] was more than 500 µM.

As for `O[C@H]1Cc2ccccc2[C@H]1n1cnc2c(Cl)ncnc21`, the inhibition at 100 µM in the data set on Hepatitis B virus [1] was determined as 30.8%; in [4], 19.7%; with Human alphaherpesvirus 1 [8] it was 23.2%. For the same compound, the CC50 at 48 h in data set [2] was more than 500 µM. Further, the CC50 at 216 h in [3] was more than 500 µM. The CC50 at 72 h in data set [5] was more than 500 µM.

For the compound `O[C@@H]1Cc2ccccc2[C@H]1n1cnc2c(Cl)ncnc21`, the inhibition at 100 µM is 22.6% with Hepatitis B virus [1] and 7.2% in the data set on Human alphaherpesvirus 1 [8]. Besides, in data set [2], the CC50 at 48 h was more than 500 µM. Besides, the CC50 at 216 h in data set [3] was more than 500 µM. Besides, the CC50 at 72 h in data set [5] is more than 500 µM.

As to `O[C@@H]1Cc2ccccc2[C@@H]1n1cnc2c(Cl)ncnc21`, the CC50 at 72 h was 308 µM in data set [9], 14.3 µM in data set [10] and 254 µM in data set [11]. The inhibition at 31.25 µM in the data set with Human alphaherpesvirus 1 [12] is 20.9%.

For the compound `Nc1ncnc2c1nnn2[C@@H]1c2ccccc2C[C@H]1O`, the inhibition at 100 µM with Hepatitis B virus [1] was determined as 42.1%; with Human alphaherpesvirus 1 [8], 7.8%. Besides, the CC50 at 48 h in data set [2] is more than 500 µM. Besides, the CC50 at 216 h in [3] was more than 500 µM. The half-maximal cytotoxic concentration (CC50) at 72 h in [5] was more than 500 µM.

As to `Nc1nc2c(ncn2COCCO)c(=O)[nH]1` [ACYCLOVIR], the EC50 in the data set with Human alphaherpesvirus 1 [13] amounted to 0.5 µM.

Regarding `Oc1ncnc2c1nnn2[C@H]1c2ccccc2C[C@@H]1O`, the inhibition at 100 µM in the data set on Hepatitis B virus [1] came out at 25.2%. In addition, the CC50 at 48 h in [2] is more than 500 µM. The CC50 at 216 h in [3] was more than 500 µM. The CC50 at 72 h in data set [5] was more than 500 µM.

Regarding `O[C@H]1Cc2ccccc2[C@@H]1n1cnc2c(Cl)ncnc21`, the results for the inhibition at 100 µM with Hepatitis B virus [1] and in the data set with Human alphaherpesvirus 1 [8] were 14.2% and 16.2%, respectively. Further, in data set [2], the cytotoxic concentration (CC50) at 48 h was more than 500 µM. Further, the CC50 at 216 h in [3] is more than 500 µM. For the same compound, the CC50 at 72 h in data set [5] was more than 500 µM.

As to `Nc1ncnc2c1nnn2[C@H]1c2ccccc2C[C@H]1O`, the inhibition at 100 µM in the data set with Hepatitis B virus [1] worked out at 41.4%; in [4] it was 42.1%; in the data set on Human alphaherpesvirus 1 [8] it was 20.9%. For the same compound, the CC50 at 48 h in data set [2] was more than 500 µM. The CC50 at 216 h in [3] is more than 500 µM. Further, the CC50 at 72 h in [5] is more than 500 µM.

Take `Oc1ncnc2c1nnn2[C@H]1c2ccccc2C[C@H]1O`: the inhibition at 100 µM in the data set on Hepatitis B virus [1] amounted to 27.7%; in the data set on Human alphaherpesvirus 1 [8], 15.8%. Moreover, the CC50 at 48 h in data set [2] is more than 500 µM. Further, the CC50 at 216 h in data set [3] is more than 500 µM. In addition, in [5], the CC50 at 72 h was more than 500 µM.
